According to patent publication US11046668B2, “Small molecule antimicrobials” (Ohio State Innovation Foundation, priority 2016, dated 2021):
Values after ≈ are worked out from the molar mass of the structure shown. “Also recorded” adds a separate entry of the source. Marks after values point to notes of the source that are not given here.

Columns and labels:
[1] = test system: colon cells (CCD-112CoN, ATCC); assay: Cytotoxicity assay on normal colon cells (sulforhodamine B); type: cell-based, human; conditions: for toxicity against the colon cells: CCD-112CoN, ATCC, data not shown; for survival rates of colon cells: at 200 μM; for highest concentrations of each compound to cause lysis of human colon cells, converted to ppm: 200 μM converted to ppm
[2] = test system: C. jejuni; assay: Log reduction test in tapioca film; conditions: for % Efficacy loss due to incorporation / Log10 CFU/ml reduction: C. jejuni; for % Efficacy loss due to incorporation: film vs broth; for Log10 CFU/ml reduction / C. jejuni count after treatment: in tapioca film, JA-144 6.25 ppm, TH-4 25 ppm, TH-8 50 ppm, 24 hours; for Log10 CFU/ml reduction: vs control
Experimental: (§1) The films prepared above were cut into small pieces that were capable of fitting into 1.5 ml micro-tubes. The weight of each film sample ranged from 5 to 15 mg. The micro-tubes were then exposed to UV light for 18 hours to eliminate possible contamination that may have occurred during the cutting and transferring process. […] After adding the proper amount of bacterial culture, the micro-tubes were placed in an incubator aerobically at 37° C. (for E. coli and L. innocua), or microaerobically at 42° C. (for C. jejuni and C. coli), for 24 hours, respectively.
(§2) After 24 hours incubation, the broth was centrifuged at 4,000 rpm for 5 min at 23° C. with appropriate aseptic precautions. The supernatant was discarded and the pellet resuspended using 1 ml of sterile peptone water and centrifuged again at 4000 rpm for 5 min. This step was repeated until the supernatant was clear. The pellets were then suspended in 1 ml sterile peptone water, and seven consecutive 10-fold dilutions were made to obtain inoculums ready for the plate counts. For the experimental groups with the small molecule compounds, 0.1 ml of diluted broth (dilution of 10^−2; 10^−4; 10^−6) were inoculated on to the plates. For the control groups, 0.1 ml of diluted broth (dilution of 10^−6 and 10^−7) was added to the plates. They were then incubated at 37° C. aerobically (for E. coli and L. innocua), or 42° C. microaerobically (for C. jejuni and C. coli) for 24 hours, and then colony numbers on each plate counted using a Darkfield Colony Counter manufactured by American Optical (Buffalo, N.Y.).

[3] = test system: C. coli; assay: Log reduction test in broth; conditions: JA-144 3.125 ppm, TH-4 12.5 ppm, TH-8 50 ppm, 24 hours; for Log10 CFU/ml reduction: C. coli in broth, vs control; for C. coli count after treatment: in broth
Experimental: as §2

[4] = Solubility in water; type: physicochemical
[5] = test system: E. coli K12; assay: MIC test in 96 well plate with TTC; type: cell-based; conditions: for antimicrobial activity: starting concentration 50 ppm
[6] = test system: C. coli; assay: MIC test in 96 well plate with TTC; type: cell-based; conditions: Campylobacter coli, 42° C. microaerobically, 24 hours
[7] = test system: C. jejuni; assay: MIC test in 96 well plate with TTC; type: cell-based; conditions: Campylobacter jejuni, 42° C. microaerobically, 24 hours
[8] = test system: C. jejuni colonization; assay: In vivo effect on C. jejuni colonization in broiler chickens; conditions: administered orally, in 30% DMSO; three week old broiler chickens
[9] = test system: C. jejuni; assay: Bacterial growth curves (optical density); conditions: OD every 4 hours
Experimental: (§3) For E. coli K12 and L. innocua, the bacterial incubations were followed by measurements of the Optical Density (OD) values every 15 minutes in an automated Sunrise™ Tecan Spectrophotometer (Tecan Co.) during an incubation period of 24 hours at 37° C. For C. jejuni, the incubation experimental design was similar, but the measurement period occurred every 4 hours. From the data collected, comparisons were made with the control samples and statistical analyses were used to determine the significance between the means for all observations.

[10] = test system: L. innocua; assay: MIC test in 96 well plate with TTC; type: cell-based, Listeria innocua; conditions: for antimicrobial activity: starting concentration 50 ppm
[11] = test system: C. coli; assay: Log reduction test in tapioca film; conditions: for % Efficacy loss due to incorporation / Log10 CFU/ml reduction: C. coli; for % Efficacy loss due to incorporation: film vs broth; for Log10 CFU/ml reduction / C. coli count after treatment: in tapioca film, JA-144 3.125 ppm, TH-4 12.5 ppm, TH-8 50 ppm, 24 hours; for Log10 CFU/ml reduction: vs control
Experimental: as §1, §2

[12] = test system: C. jejuni; assay: Log reduction test in broth; conditions: JA-144 6.25 ppm, TH-4 25 ppm, TH-8 50 ppm, 24 hours; for Log10 CFU/ml reduction: C. jejuni in broth, vs control; for C. jejuni count after treatment: in broth
Experimental: as §2

[13] = test system: Salmonella, E. coli, Listeria and also several commensal and/or probiotic bacteria; assay: Specificity against diverse foodborne pathogens and commensal/probiotic bacteria; type: cell-based; conditions: tested for specificity against foodborne pathogens and commensal/probiotic bacteria
[14] = test system: pathogenic E.coli, Listeria strain, C. jejuni and E. coli bacteria; assay: Efficacy of JA-144 when incorporated in edible films (Example 1); type: cell-based
From the text: As described in primary HTS, we screened re-synthesized two compounds for C. jejuni 81-176 growth inhibition. Both re-synthesized compounds effective inhibiting Campylobacter growth at tested concentrations. […] Where positive control (P CNTL includes Campylobacter culture with known antibiotics and negative control (N CNTL) include Camylobacter culture alone. See FIG. 13. Testing the efficacy of JA-144 when incorporated in edible films against pathogenic E.coli, Listeria strain, C. jejuni and E. coli bacteria. The control (CNTL) include edible film alone. JA-144 was effective in reducing most of the pathogenic bacteria by 4 log. See FIG. 14. A cytotoxicity assay for potent semi-synthetic derivative compounds were performed using normal colon cells and sulfohodamine B methods. See FIG. 15. A cytotoxicity assay was performed for two re-synthesized compounds using normal colon cells and sulforhodamine B methods.

[15] = test system: L. innocua; assay: Log reduction test in tapioca film
Experimental: as §1, §2

[16] = test system: E. coli K12; assay: Log reduction test in tapioca film
Experimental: as §1, §2

[17] = test system: E. coli K12; assay: Log reduction test in broth; conditions: 100 ppm JA-144
Experimental: as §2

[18] = test system: L. innocua; assay: Bacterial growth curves (optical density); conditions: OD over 24 hours at 37° C.
Experimental: as §3

[19] = test system: L. innocua; assay: Log reduction test in broth; conditions: 100 ppm JA-144
Experimental: as §2

[20] = test system: E. coli K12; assay: Bacterial growth curves (optical density); conditions: OD over 24 hours at 37° C.
Experimental: as §3

[21] = in tapioca film, 1% w/w JA-144, 24 hours incubation

Compound	toxicity against the colon cells [1]	survival rates of colon cells [1] [%]	highest concentrations of each compound to cause lysis of human colon cells [1] [µM]	highest concentrations of each compound to cause lysis of human colon cells, converted to ppm [1] [ppm]	% Efficacy loss due to incorporation [2] [%]	Log10 CFU/ml reduction [2] [Log10 CFU/ml]	C. jejuni count after treatment [2]	Log10 CFU/ml reduction [3] [Log10 CFU/ml]	C. coli count after treatment [3]	solubility in water [4]	antimicrobial activity [5]	MIC [6] [µg/mL]	MIC [7] [µg/mL]	concentration that completely inhibited growth (growth curve) [9] [ppm]	% Efficacy loss due to incorporation [11] [%]	Log10 CFU/ml reduction [11] [Log10 CFU/ml]	C. coli count after treatment [11]	Log10 CFU/ml reduction [12] [Log10 CFU/ml]	C. jejuni count after treatment [12]	spectrum of antibacterial activity [13]	further results
O=S(=O)(NCc1ccc(F)cc1)c1ccc(Cl)s1 [TH-4]	lacked toxicity	60	200	61.1	6.09	5.99	3.16 ± 0.14^a Log10 CFU/ml	6.16	3.21 ± 0.12^a Log10 CFU/ml	not readiliy soluble in water	ineffective; also recorded: no antimicrobialactivity	12.5 to 25 (≈ 40.9 to 81.8 µM)	12.5 to 25 (≈ 40.9 to 81.8 µM)	25	29.02	4.37	5.03 ± 0.07^a Log10 CFU/ml	6.37	2.78 ± 0.09^a Log10 CFU/ml	specific to C. jejuni and C. coli	in vivo results in a chicken model [8]: promising in vivo results; antimicrobial activity [10]: ineffective; also recorded: no antimicrobialactivity
Cc1ccccc1CNS(=O)(=O)c1ccc(Cl)s1 [TH-8]	lacked toxicity	79	200	60.4	25.52	4.01	5.10 ± 0.07^a Log10 CFU/ml	5.51	4.11 ± 0.05^a Log10 CFU/ml	not readiliy soluble in water	ineffective; also recorded: did not show antimicrobialactivity	25 to 50 (≈ 82.8 to 166 µM)	25 to 50 (≈ 82.8 to 166 µM)	50	48.01	2.87	6.83 ± 0.06^a Log10 CFU/ml	5.39	3.64 ± 0.05^a Log10 CFU/ml	specific to C. jejuni and C. coli	in vivo results in a chicken model [8]: promising in vivo results; antimicrobial activity [10]: ineffective; also recorded: did not show antimicrobialactivity
OCC1(Cc2ccccc2)CCCN(Cc2cc3ccccc3[nH]2)C1 (stereo not shown) [JA-144]	–	99	200	66.9	0.25	6.36	2.86 ± 0.13^a Log10 CFU/ml	6.27	2.93 ± 0.26^a Log10 CFU/ml	–	–	3.12 to 6.25 (≈ 9.34 to 18.7 µM)	3.12 to 6.25 (≈ 9.34 to 18.7 µM)	6.25	2.03	6.14	2.93 ± 0.16^a Log10 CFU/ml	6.35	2.90 ± 0.09^a Log10 CFU/ml	broad spectrum effect on other bacteria including E. coli and Listeria	reduction of most of the pathogenic bacteria [14]: 4 log; Percent efficacy loss due to incorporation ([15]; L. innocua, film vs broth): 36.42%; Log10 CFU/ml reduction ([15]; L. innocua, tapioca film, 1% w/w JA-144, 24 hours, vs control): 3.51 Log10 CFU/ml; L. innocua count after treatment [15, 21]: 5.22 ± 0.07^b Log10 CFU/ml; MIC ([5]; Escherichia coli, 37° C. aerobically, 24 hours): 100 µg/mL (≈ 299 µM); Percent efficacy loss due to incorporation ([16]; E. coli K12, film vs broth): 43.48%; Log10 CFU/ml reduction ([16]; E. coli K12, tapioca film, 1% w/w JA-144, 24 hours, vs control): 3.31 Log10 CFU/ml; E. coli K12 count after treatment [16, 21]: 5.58 ± 0.08^a Log10 CFU/ml; MIC ([10]; Listeria innocua, 37° C. aerobically, 24 hours): 50 to 100 µg/mL (≈ 149 to 299 µM); Log10 CFU/ml reduction ([17]; E. coli K12 in broth, 24 hours, vs control): 5.86 Log10 CFU/ml; E. coli K12 count after treatment ([17]; in broth, 24 hours incubation): 2.96 ± 0.30^a Log10 CFU/ml; concentration that completely inhibited growth (growth curve) [18]: 100 ppm; Log10 CFU/ml reduction ([19]; L. innocua in broth, 24 hours, vs control): 5.52 Log10 CFU/ml; L. innocua count after treatment ([19]; in broth, 24 hours incubation): 3.14 ± 0.11^b Log10 CFU/ml; concentration that completely inhibited growth (growth curve) [20]: 100 ppm
